Test results taken from patent US8633204B2 (Pfizer Inc., priority 2006, dated 2014).

Tests used:
[1] = test system: PI3-K in BT20 cells (phosphorylation of AKT at serine 473); test: PI3-Kα Cellular Assay (AKT Ser473 phosphorylation ELISA in BT20 cells); assay type: cell-based, human; settings: Homo sapiens, BT-20, pAKT Ser473 ELISA, 1 hour incubation
Procedure, shortened: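 Cells seeded overnight in 0.5% FBS, then exposed 1 h at 37 °C to an 11-concentration 1:3 dilution series, in duplicate.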

[2] = target: PI3-Kα (Mus musculus (Mouse), UniProt P42337); test: PI3-Kα Biochemical Assay (fluorescence polarization kinase assay)
PI3-Kα, sequence (P42337 whole entry, the tested form may be a part): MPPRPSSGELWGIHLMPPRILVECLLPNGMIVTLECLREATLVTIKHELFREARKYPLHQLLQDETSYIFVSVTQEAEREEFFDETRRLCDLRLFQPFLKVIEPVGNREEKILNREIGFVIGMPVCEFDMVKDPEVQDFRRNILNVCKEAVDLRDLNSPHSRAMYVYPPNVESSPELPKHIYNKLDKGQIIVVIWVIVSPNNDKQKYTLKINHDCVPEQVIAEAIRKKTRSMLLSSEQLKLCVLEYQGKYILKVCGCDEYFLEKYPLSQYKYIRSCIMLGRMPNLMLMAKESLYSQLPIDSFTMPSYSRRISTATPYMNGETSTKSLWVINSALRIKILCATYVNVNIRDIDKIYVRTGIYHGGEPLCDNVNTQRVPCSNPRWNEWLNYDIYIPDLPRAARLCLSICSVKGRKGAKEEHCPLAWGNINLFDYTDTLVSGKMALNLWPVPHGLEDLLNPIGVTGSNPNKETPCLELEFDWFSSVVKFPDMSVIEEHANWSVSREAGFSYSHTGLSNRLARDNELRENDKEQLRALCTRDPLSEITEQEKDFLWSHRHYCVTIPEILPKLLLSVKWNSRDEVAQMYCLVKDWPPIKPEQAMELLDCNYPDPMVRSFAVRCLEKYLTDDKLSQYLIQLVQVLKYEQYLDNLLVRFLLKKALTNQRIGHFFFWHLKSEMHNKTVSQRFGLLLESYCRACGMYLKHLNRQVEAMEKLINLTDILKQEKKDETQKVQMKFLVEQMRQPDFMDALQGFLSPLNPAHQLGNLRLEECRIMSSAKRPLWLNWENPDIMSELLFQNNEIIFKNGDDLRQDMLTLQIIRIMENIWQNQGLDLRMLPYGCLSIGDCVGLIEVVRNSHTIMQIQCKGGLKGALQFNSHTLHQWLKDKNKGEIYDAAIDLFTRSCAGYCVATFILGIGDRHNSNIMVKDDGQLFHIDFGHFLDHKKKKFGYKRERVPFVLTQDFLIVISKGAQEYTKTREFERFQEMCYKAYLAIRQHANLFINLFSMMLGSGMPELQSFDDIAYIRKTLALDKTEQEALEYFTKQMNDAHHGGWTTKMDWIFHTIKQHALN
PI3-Kα, sequence (P26450 whole entry partner, the tested form may be a part): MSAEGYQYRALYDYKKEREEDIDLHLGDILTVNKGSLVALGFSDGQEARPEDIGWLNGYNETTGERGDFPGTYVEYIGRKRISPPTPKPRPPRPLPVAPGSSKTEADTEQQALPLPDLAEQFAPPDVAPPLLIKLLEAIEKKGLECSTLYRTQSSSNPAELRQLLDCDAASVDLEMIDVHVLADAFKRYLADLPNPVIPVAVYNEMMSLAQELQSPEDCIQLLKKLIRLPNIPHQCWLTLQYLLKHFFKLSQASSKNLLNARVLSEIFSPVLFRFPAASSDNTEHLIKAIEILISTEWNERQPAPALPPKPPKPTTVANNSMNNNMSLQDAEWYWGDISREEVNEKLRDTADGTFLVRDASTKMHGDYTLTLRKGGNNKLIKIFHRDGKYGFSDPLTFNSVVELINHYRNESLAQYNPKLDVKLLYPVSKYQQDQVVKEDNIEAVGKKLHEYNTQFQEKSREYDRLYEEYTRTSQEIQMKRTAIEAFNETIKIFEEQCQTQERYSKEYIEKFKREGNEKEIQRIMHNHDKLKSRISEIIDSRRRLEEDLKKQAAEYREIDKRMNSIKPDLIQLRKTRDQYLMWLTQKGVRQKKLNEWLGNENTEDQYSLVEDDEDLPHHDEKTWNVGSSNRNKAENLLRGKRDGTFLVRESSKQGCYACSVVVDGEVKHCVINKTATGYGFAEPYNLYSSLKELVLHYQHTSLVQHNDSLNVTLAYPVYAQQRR
Procedure, shortened: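 Co-expressed mouse p110/p85 PI3-Kα (4 nM stock) acting on PI(4,5)P2 (60 μM stock) with ATP/MgCl2 in HEPES pH 7.4 buffer, 35 min at room temperature, then EDTA stop. PI(3,4,5)P3 product detected by displacement of TAMRA-PIP3 from Grip1 PH domain (FP, 535/580 nm). IC50 from sigmoidal fit of % inhibition.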

Compound	IC50 [1]	IC50 [2]
CCn1nccc1NC(=O)c1cc2c(C)nc(N)nc2n([C@H]2CC[C@H](O)CC2)c1=O [Compound 278, 2-amino-N-(1-ethyl-1H-pyrazol-5-yl)-8-(trans-4-hydroxycyclohexyl)-4-methyl-7-oxo-78-dihydropyrido[23-d]pyrimidine-6-carboxamide]	50.5 nM	1.3 nM
Cc1nc(N)nc2c1cc(C(=O)Nc1ccn[nH]1)c(=O)n2C(C)C [Compound 279, 2-amino-8-isopropyl-4-methyl-7-oxo-N-1H-pyrazol-5-yl-7,8-dihydropyrido[2,3-d]pyrimidine-6-carboxamide]	30.5 nM	2.9 nM
CCn1cc(CNC(=O)c2cc3c(C)nc(NC)nc3n(C3CCCC3)c2=O)cn1 [Compound 281, 8-cyclopentyl-N-[(1-ethyl-1H-pyrazol-4-yl)methyl]-4-methyl-2-(methylamino)-7-oxo-7,8-dihydropyrido[2,3-d]pyrimidine-6-carboxamide]	> 10000 nM	1200 nM
CNc1nc(C)c2cc(C(=O)Nc3ccon3)c(=O)n(C3CCCC3)c2n1 [Compound 283, 8-cyclopentyl-N-isoxazol-3-yl-4-methyl-2-(methylamino)-7-oxo-7,8-dihydropyrido[2,3-d]pyrimidine-6-carboxamide]	72.2 nM	5 nM
COc1ncc(-c2cc3c(C)nc(N)nc3n([C@H]3CC[C@H](OCCO)CC3)c2=O)cn1 [Compound 287, 2-amino-8-[trans-4-(2-hydroxyethoxy)cyclohexyl]-6-(2-methoxypyrimidin-5-yl)-4-methylpyrido[2,3-d]pyrimidin-7(8H)-one]	38.9 nM	2.2 nM
COc1ncc(-c2cc3c(C)nc(N)nc3n([C@H]3CC[C@H](OCCO)CC3)c2=O)cc1F [Compound 288, 2-amino-6-(5-fluoro-6-methoxypyridin-3-yl)-8-[trans-4-(2-hydroxyethoxy)cyclohexyl]-4-methylpyrido[2,3-d]pyrimidin-7(8H)-one]	5.3 nM	1.44 nM
Cc1nc(N)nc2c1cc(Br)c(=O)n2[C@H]1CC[C@H](OCCO)CC1 [Compound 291, 2-amino-6-bromo-8-[trans-4-(2-hydroxyethoxy)cyclohexyl]-4-methylpyrido[2,3-d]pyrimidin-7(8H)-one]	96.5 nM	55.2 nM
Cc1nc(N)nc2c1cc(-c1ccc(N(C)C)nc1)c(=O)n2[C@H]1CC[C@H](OCCO)CC1 [Compound 292]	12.1 nM	9.28 nM
COc1ncc(-c2cc3c(C)nc(N)nc3n([C@H]3CC[C@@H](OCCO)CC3)c2=O)cn1 [Compound 293, 2-amino-8-[cis-4-(2-hydroxyethoxy)cyclohexyl]-6-(2-methoxypyrimidin-5-yl)-4-methylpyrido[2,3-d]pyrimidin-7(8H)-one]	15.3 nM	5.31 nM
Cc1nc(N)nc2c1cc(-c1cn[nH]c1)c(=O)n2[C@H]1CC[C@@H](OCCO)CC1 [Compound 296, 2-amino-8-[cis-4-(2-hydroxyethoxy)cyclohexyl]-4-methyl-6-(1H-pyrazol-4-yl)pyrido[2,3-d]pyrimidin-7(8H)-one]	9.1 nM	29.7 nM
COc1ccc(-c2cc3c(C)nc(N)nc3n([C@H]3CC[C@H](OC[C@@H](O)CO)CC3)c2=O)cn1 [Compound 300, 2-amino-8-(trans-4-{[(2S)-2,3-dihydroxypropyl]oxy}cyclohexyl)-6-(6-methoxypyridin-3-yl)-4-methylpyrido[2,3-d]pyrimidin-7(8H)-one]	13.2 nM	6.82 nM
Cc1nc(N)nc2c1cc(-c1cnn(C)c1)c(=O)n2[C@H]1CC[C@H](OCCO)CC1 [Compound 302, 2-amino-8-[trans-4-(2-hydroxyethoxy)cyclohexyl]-4-methyl-6-(1-methyl-1H-pyrazol-4-yl)pyrido[2,3-d]pyrimidin-7(8H)-one]	226 nM	22.3 nM
COc1ccc(-c2cc3c(C)nc(N)nc3n([C@H]3C[C@H](OCCO)C3)c2=O)cn1 [Compound 314, 2-amino-8-(trans-3-(2-hydroxyethoxy)cyclobutyl]-6-(6-methoxypyridin-3-yl)-4-methylpyrido[2,3-d]pyrimidin-7(8H)-one]	50.8 nM	10.2 nM

Second part, the molecule after the results:

IC50 [1]	IC50 [2]	Compound
14.6 nM	3.11 nM	COc1ncc(-c2cc3c(C)nc(N)nc3n([C@H]3C[C@H](OCCO)C3)c2=O)cc1F [Compound 315, 2-amino-6-(5-fluoro-6-methoxypyridin-3-yl)-8-[trans-3-(2-hydroxyethoxy)cyclobutyl]-4-methylpyrido[2,3-d]pyrimidin-7(8H)-one]
93.5 nM	6.65 nM	COc1ncc(-c2cc3c(C)nc(N)nc3n([C@H]3C[C@H](OCCO)C3)c2=O)cn1 [Compound 316, 2-amino-8-[trans-3-(2-hydroxyethoxy)cyclobutyl]-6-(2-methoxypyrimidin-5-yl)-4-methylpyrido[2,3-d]pyrimidin-7(8H)-one]
33.5 nM	4.72 nM	COc1ccc(-c2cc3c(C)nc(N)nc3n([C@H]3C[C@H](OCC(N)=O)C3)c2=O)cn1 [Compound 317, 2-({trans-3-[2-amino-6-(6-methoxypyridin-3-yl)-4-methyl-7-oxopyrido[2,3-d]pyrimidin-8(7H)-yl]cyclobutyl}oxy)acetamide]
12.6 nM	2.14 nM	COc1ncc(-c2cc3c(C)nc(N)nc3n([C@H]3C[C@H](OCC(N)=O)C3)c2=O)cc1F [Compound 318, 2-({trans-3-(2-amino-6-(5-fluoro-6-methoxypyridin-3-yl)-4-methyl-7-oxopyrido[2,3-yl]pyrimidin-8(7H)-yl)cyclobutyl}oxy)acetamide]
110 nM	5.91 nM	COc1ncc(-c2cc3c(C)nc(N)nc3n([C@H]3C[C@H](OCC(N)=O)C3)c2=O)cn1 [Compound 319, 2-({trans-3-(2-amino-6-(2-methoxypyrimidin-5-yl)-4-methyl-7-oxopyrido[2,3-d]pyrimidin-8(7H)-yl]cydobutyl}oxy)acetamide]
